Experiments:
[1] = test system: OVCAR5 cells; assay: Cell viability and synergy with cisplatin; format: cell-based; conditions: at 1 μM and 10 μM, 72 h
[2] = test system: PEO1 cells; assay: Cell viability and synergy with cisplatin; format: cell-based; conditions: at 1 μM and 10 μM, 72 h

SMILES | Cytotoxicity of compound alone, OVCAR5 [1] | Cytotoxicity of compound alone, PEO1 [2]
O=c1c2cnn(C3COC3)c2nc(SCc2cccc(F)c2)n1-c1ccccc1 [Compound 12g, 6-((3-Fluorobenzyl)thio)-1-(oxetan-3-yl)-5-phenyl-1H-pyrazolo[3,4-d]pyrimidin-4(5H)-one] | did not show cytotoxicity | did not show cytotoxicity
O=c1c2cn(C3COC3)nc2nc(SCc2cccc(F)c2)n1-c1ccccc1 [Compound 13g, 6-((3-Fluorobenzyl)thio)-2-(oxetan-3-yl)-5-phenyl-2H-pyrazolo[3,4-d]pyrimidin-4(5H)-one] | did not show cytotoxicity | did not show cytotoxicity

From publication PMC6477540 (Journal of medicinal chemistry, 2018)
